Reference: article PMC8534003, “The Chemokine-Based Peptide, CXCL9(74-103), Inhibits Angiogenesis by Blocking Heparan Sulfate Proteoglycan-Mediated Signaling of Multiple Endothelial Growth Factors” (Cancers, 2021)
Where no end group is shown, it is not given here. TAMRA = 5(6)-carboxytetramethylrhodamine

Legend:
[1] = tested on: human microvascular endothelial cells (HMVECs); assay: xCELLigence chemotaxis assay (HMVEC migration); type: cell-based; details: EGF 10 ng/mL, FGF-2 30 ng/mL or VEGF165 10 ng/mL in lower chamber
Experimental: To evaluate the effect of the CXCL9-derived peptides on growth factor-induced endothelial cell migration, the xCELLigence® real-time cell analyzer (RTCA DP) system (ACEA Biosciences, Inc.; San Diego, CA, USA) was used. First, 160 µL MCDB131 medium (Gibco) supplemented with 0.4% (v/v) FCS (control medium) or 160 µL control medium with 30 ng/mL FGF-2, 10 ng/mL VEGF165 or 10 ng/mL EGF were added to the lower chamber of a cell invasion/migration (CIM)-Plate (ACEA Biosciences, Inc.). After assembly of the lower and upper chamber, 50 µL of serum-free MCDB131 medium was added in the upper wells. Following equilibration of the plate at 37 °C for 1 h, HMVECs were added in the upper chamber at 4 × 10^4 cells in 100 µL/well. CXCL9(74-103) or CXCL9(86-103) was added together with the cells in the upper compartment at a concentration of 0.3 or 3 µM. The assembled CIM-Plate was left at room temperature for 30 min to allow the cells to settle onto the membrane. Finally, the plate was placed in the instrument at 37 °C to monitor cell migration for 15 h. Cell migration from one compartment to the other was recorded (one recording every minute) as changes in electrical impedance. These changes were converted into cell indices, as a measure of cell migration.

[2] = tested on: human microvascular endothelial cells (HMVECs); assay: Endothelial cell proliferation assay (MTT or ATP lite); type: cell-based; details: EGF, VEGF165 5 ng/mL or FGF-2 3 ng/mL as single stimulus
Experimental: The ability of the CXCL9-derived peptides to inhibit growth factor-induced proliferation of endothelial cells was assessed. HMVECs were seeded at 5 × 10^3 cells/well in EBM™-2 medium containing 1% (v/v) FCS (proliferation medium). After settling of the cells, they were stimulated with EGF, VEGF165 (both 5 ng/mL) or FGF-2 (3 ng/mL) as a single stimulus or in combination with CXCL9(86-103) or CXCL9(74-103) at 0.3 or 3 µM in proliferation medium or left untreated. HMVECs were also treated with 0.3 or 3 µM of CXCL9(74-103) or 3 µM of CXCL9(86-103) alone to assess the effect of CXCL9-derived peptide treatment on spontaneous proliferation. After 3 to 4 days, a 3-(4,5-dimethylthiazol-2-yl)-2,5-diphenyl tetrazolium bromide (MTT) or ATP lite assay was performed. The ATP lite assay was performed according to the manufacturer’s instructions (Perkin Elmer, Waltham, MA). When MTT was used as substrate, the medium was replaced with 200 µL of MTT solution (RPMI without phenol red containing 0.4 g/L MTT) and the cells were incubated at 37 °C and 5% CO2 in the dark for 4 hours. Then, the MTT solution was discarded and the formed formazan crystals were dissolved in 200 µL acidic propanol [0.04 M HCl, 0.1% (v/v) NP-40 in isopropanol] under continuous shaking in the dark for 10 min. The optical densities were measured at 570 nm and 630 nm (reference wavelength).

[3] = tested on: phospho-ERK1/2; assay: Signal transduction assay, EGF-induced ERK phosphorylation in HMVECs (ELISA); type: cell-based, human; details: EGF 10 ng/mL, 15 min, compared to control (100%), n ≥ 3
Experimental: HMVECs and MECs were seeded in 6-well plates at 1.25 × 10^5 cells/well in their respective culture medium. Once the cell density reached 70–80% confluency, the cells were starved in serum-free medium overnight. Fifteen minutes prior to stimulation, cells were incubated with various concentrations of CXCL9(74-103) or CXCL9(86-103) in 0.5% (v/v) BSA in MCDB131 or DMEM medium (assay medium for HMVECs and MECs, respectively) at 37 °C. HMVECs and MECs were stimulated with assay medium alone or supplemented with 10 ng/mL EGF or 5 ng/mL murine VEGF165 at 37 °C for 15 or 5 min, respectively. Then, the cells were placed on ice, washed with ice-cold PBS and 90 µL of lysis buffer [1% (v/v) protease inhibitor cocktail, phosphatase inhibitor cocktail 2 and 3 (all Sigma-Aldrich) in 1 mM ethylenediaminetetraacetic acid (EDTA), 0.5% (v/v) Triton™ X-100, 5 mM NaF, 6 M urea in PBS] was added per well. […] The amount of phospho-ERK1/2 in the cell lysates was determined using an ERK1 (Thr202/Tyr204)/ERK2 (Thr185/Tyr187) ELISA duoset (R&D Systems) according to the manufacturer’s instructions. The amount of phosphorylated ERK was normalized to the total protein content in the samples measured by the Pierce™ bicinchoninic acid (BCA) protein assay kit (Thermo Fisher Scientific).

[4] = tested on: FGF-2-induced angiogenesis, C57BL/6 mice; assay: In vivo angiogenesis Matrigel plug assay; design: species or system mouse; details: 180 ng FGF-2 alone, day 7
Experimental: Six-to-eight-week-old female C57BL/6 mice were anesthetized with a mixture of 2.5 mg/mL xylazine (V.M.D, Inovet, Arendonk, Belgium) and 37.5 mg/mL ketamine (Dechra, Northwich, UK) in PBS by i.p. injection. A vertical dorsal incision was made and an ALZET osmotic pump (model 1007D, DURECT Corporation, Cupertine, CA, USA) filled with 400 µg/100 µL CXCL9(74-103) or 100 µL PBS was subcutaneously (s.c.) implanted. The incision was closed with a surgical suture. Growth factor-reduced Matrigel (Corning Matrigel Growth Factor (GFR) Basement Membrane Matrix, Phenol Red-Free, LDEV-Free; Corning Life Sciences, Amsterdam, The Netherlands) was s.c. injected in the dorsal flank forming a firm plug (600 µL/plug). The Matrigel was either injected as such (control plugs) or supplemented with 300 µg CXCL9(74-103) and/or 180 ng FGF-2. Seven days later, the mice were sacrificed. Thirty minutes before sacrifice, the mice were i.v. injected with 200 µL (25 mg/kg) FITC-labeled 2000 kDa dextran (Sigma-Aldrich) to quantify vessel formation in the Matrigel plugs. Blood was collected through cardiac puncture into heparinized tubes containing 20 µL heparin (5.000 IE/mL, Leo Pharma, Ballerup, Denmark). The blood was centrifuged at 200 g and 4 °C for 10 min, whereafter the supernatant was centrifuged at 3000 g and 4 °C for 10 min. The collected plasma was stored away from light at 4 °C until analysis. The Matrigel plugs were removed and enzymatically and mechanically digested in 1.2 mL dispase (Corning Life Sciences) using an incubation at 37 °C for 1.5 h and the gentleMACS™ Dissociator (Miltenyi Biotec, Bergisch Gladbach, Germany). The digested Matrigel plugs were filtered through a 70 µm cell strainer, washed with 1.5 mL FACS buffer [2% (v/v) FCS + 2 mM EDTA in PBS] and centrifuged at 300 g and 4 °C for 7 min. The supernatant (SN) was centrifuged again at 300 g and 4 °C for 7 min and the SN was retained away from light at 4 °C until analysis. The pellet was resuspended in 1 mL FACS buffer, the cells were counted and used for flow cytometry. The antibodies used to identify endothelial cells were anti-mouse CD45-APC (clone 30-F11, eBioscience, Thermo Fisher Scientific), anti-mouse CD146-PE (clone ME-9F1) and anti-mouse Pan-endothelial Cell Antigen-BV711 (clone MECA-32) antibodies (both BD Biosciences). Mice experiments were approved by the Ethical Committee of KU Leuven (project number P199/2018).

[5] = tested on: HMVEC spheroids; assay: Spheroid sprouting assay; type: cell-based, human; details: FGF-2 10 ng/mL, 16 hours
Experimental: A 1:5 mixture of endothelial cells (4 × 10^4 cells/mL) and methylcellulose (Sigma-Aldrich, Saint Louis, MO, USA; 12 mg/mL in EBM™-2 basal medium) in EBM™-2 cell culture medium was prepared. Drops of 1 × 10^3 HMVECs were plated on a petri dish and allowed to form single spheroids in hanging droplets at 37 °C, 5% CO2 for 24 h. Spheroids were collected, sedimented by centrifugation and resuspended in a mixture of 24 mg/mL methylcellulose in basal EBM™-2, 1 mg/mL collagen type I (BD Biosciences, San Jose, CA, USA), 2.5 mg/mL NaHCO3 and 10 mM NaOH. The suspension was plated in a 96-well plate and the collagen was allowed to polymerize at 37 °C, 5% CO2 for 30 min. Spheroids were left untreated or stimulated with 0.3 or 3 µM of CXCL9(74-103) or 3 µM of CXCL9(86-103) for 15 min prior to addition of 10 ng/mL FGF-2 or 10 ng/mL EGF in EBM™-2 + 3% (v/v) FCS. In some experiments, HMVECs were pretreated with heparinase II (vide infra). After 16 hours, spheroid sprouting was assessed with an inverted Axiovert 200M microscope (Zeiss, Germany) through a 10× objective. The average number of sprouts was calculated and the average sprout length per spheroid was measured using Fiji software.
Sprouting experiments examining the dependency on HS binding for the inhibitory action of CXCL9(74-103) were performed as described above (vide supra). […]

[6] = tested on: cell surface HS on HMVECs; assay: Cellular HS binding of TAMRA-labeled CXCL9(74-103), flow cytometry; design: species or system human; details: 1 representative of 3 experiments
Experimental: CXCL9(74-103) binding to cellular HS was assessed via flow cytometry. HMVECs were either left untreated or incubated with 0.75 U/mL heparinase II (Sigma-Aldrich) at 37 °C for 2 h. Cells were harvested and left at room temperature for 1 h to recuperate, they were then placed on ice and centrifuged. After centrifugation (300 g, 4 °C, 7 min) and resuspension in PBS, 1 × 10^5 cells per condition were stained with 3, 0.6 or 0.12 nM TAMRA-labeled CXCL9(74-103). To verify downregulation of HS expression, cells were stained with mouse anti-HS Ab (clone F58-10E4, Cat No 370255-S; Amsbio, Abingdon, UK) and R-PE goat anti-mouse IgM Ab (Cat No 115-116-075; Jackson ImmunoResearch, Westgrove, PA, USA). Flow cytometric analysis was performed using the BD LSRFortessa™ X-20 flow cytometer and FlowJo software (both BD Biosciences).

Substance | enhancement of migration by growth factor alone [1] | enhancement of proliferation by growth factor alone [2] | phospho-ERK content [3] [%] | CD146+MECA-32+ cell population, FGF-2 compared to control [4] [fold] | fluorescence ratio, FGF-2 plug compared to control [4] | number of cells inside plug, FGF-2 compared to control [4] [fold] | sprouting in response to FGF-2 alone [5] | binding to untreated HMVECs ([6]; 3, 0.6 or 0.12 nM TAMRA-labeled peptide) | binding to heparinase II-treated HMVECs ([6]; heparinase II 0.75 U/mL, 37 °C, 2 h, 3, 0.6 or 0.12 nM)
EGF: human recombinant EGF (R&D Systems), stimulus | significant enhancement of endothelial cell migration | significant enhancement of proliferation | 247 | – | – | – | – | – | –
FGF-2: human recombinant FGF-2 (R&D Systems), stimulus | significant enhancement of endothelial cell migration | significant enhancement of proliferation | – | ~3 | doubled the fluorescence ratio compared to the control | ~3 | pronounced endothelial sprouting | – | –
TAMRA-labeled CXCL9(74-103): CXCL9(74-103) fluorescently labeled at the NH2-terminus with 5(6)-carboxytetramethylrhodamine ({TAMRA}-KKKQKNGKKHQKKKVLKVRKSQRSRQKKTT; UniProt Q07325 96-125, looked up, fragment) | – | – | – | – | – | – | – | bound CXCL9(74-103) in a concentration-dependent manner | bound CXCL9(74-103) less efficiently compared to cells with intact HS
